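These data come from cells grown in 96-well plates and exposed to compound for 48 hours at five concentrations. At the TGI there is no net growth.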
What was measured:
Assay in all cases: NCI tumour cell line growth inhibition, 48 h
SR leukemia = system: SR leukemia
SNB-19 CNS = system: SNB-19 CNS
HCT-15 colon = system: HCT-15 colon
OVCAR-5 ovarian = system: OVCAR-5 ovarian
SNB-75 CNS = system: SNB-75 CNS
NCI-H23 lung = system: NCI-H23 lung
SF-539 CNS = system: SF-539 CNS
NCI-H226 lung = system: NCI-H226 lung
NCI/ADR-RES ovarian = system: NCI/ADR-RES ovarian
A498 renal = system: A498 renal

SMILES	TGI (SR leukemia) [µM]	TGI (SNB-19 CNS) [µM]	TGI (HCT-15 colon) [µM]	TGI (OVCAR-5 ovarian) [µM]	TGI (SNB-75 CNS) [µM]	TGI (NCI-H23 lung) [µM]	TGI (SF-539 CNS) [µM]	TGI (NCI-H226 lung) [µM]	TGI (NCI/ADR-RES ovarian) [µM]	TGI (A498 renal) [µM]
O=c1[nH]c2c(nc1NC13CC4CC(CC(C4)C1)C3)c(=O)oc1ccccc12	> 100	> 100	> 100	> 100	> 100	> 100	35.8	85.6		
CNC(C#N)c1ccc(OC)cc1 (centres undefined)		> 100	> 100	> 100		> 100	> 100	> 100	> 100	> 100
CCOC(=O)c1c(-c2ccc(OC)cc2)c(C#N)c(=S)n(C2OC(COC(C)=O)C(OC(C)=O)C(OC(C)=O)C2OC(C)=O)c1-c1ccccc1 (centres undefined)	> 100	> 100	> 100	> 100	> 100	> 100	> 100		> 100	
CCOc1cc2c(OCc3ccccc3)cc3c4cc(OC)c(OC)cc4c[n+](C)c3c2cc1OC		2.44	> 100	44	> 100	9.1	5.43	9.71	> 100	> 76.3
CN=c1nc2sc3c(c2c(NC(=S)NC)s1)CCCC3	> 100	> 100	> 100	> 100		> 100		> 100		> 100
COC(=O)CCC1=CCC2(SC)C(=O)Nc3cccc1c32 (centres undefined)	> 100	> 100	> 100	> 100	> 100	> 100	> 100	> 100	> 100	
CC(C)(C)NC(NC(C)(C)C)=C(/C=C(/Cl)[N+](=O)[O-])[N+](=O)[O-]	> 100	> 100	> 100	> 100	87.2	> 100	> 100	> 100		> 100
CNc1ccc(C(=O)CC(O)CCC(C)C2OC(=O)CC(O)CC(=O)CC(O)CC(O)CC(O)CC(O)CC3(O)CC(O)C(C(=O)NCCN(C)C)C(CC(OC4OC(C)C(O)C(NC(=O)CN5CCN(C)CC5)C4O)/C=C/C=C/C=C/C=C\C=C/C=C/C=C/C2C)O3)cc1 (centres undefined)			> 100	> 100	> 100	> 100	> 100	> 100	> 100	7.8
CC(C)(C)[Si](OC1CC(n2cnc3c(N)ncnc32)OC1CO)(c1ccccc1)c1ccccc1 (centres undefined)	43.8	50		34.8		28	36.7	27.1		32.9
CCN(CC)CC1CCCCCCCCCCC1=O (centres undefined)	> 100	> 100	> 100	> 100	> 100	> 100		> 100		> 100
COc1ccccc1/C(=N\OCCC(=O)O)c1cccs1		> 100	> 100	> 100	> 100	> 100	> 100	> 100	> 100	> 100
Nc1ccc2c(c1)N(C(=O)c1cc3cc(NC(=O)c4cc5ccccc5o4)ccc3[nH]1)CC2CCl (centres undefined)		16.1	> 100	> 38.3	0.469	0.161		0.329	0.338	0.544
CC(=O)c1ccc(NCc2cc(O)ccc2O)cc1		> 100	> 100	44.2	28	48.9	33	> 100	> 100	> 100
COc1cc2cc3c4c(cc(OC)c(OC)c4c2cc1OC)CCN3C(=O)OCCN1CCNCC1	29.8	43.3	29.2	31.9	27.5	31.8	28.4	28.1		27.8
O=C1C(Cl)N(c2ccc(Cl)cc2)C1c1c[nH]c2ccccc12 (centres undefined)	39.4	> 100			> 100	62.8	37.2			
CCCCS(=O)CCC(N)P(=O)(O)O (centres undefined)	> 100	> 100	> 100	> 100	> 100	> 100		> 100	> 100	
COc1cccc2c1OC(c1ccc(Cl)cc1)C([N+](=O)[O-])=C2 (centres undefined)	> 100	17	10.8	7.84		21.2			39.5	
CC1=CC(C)C/C=C/C2C3OC3(C)C(C)C3C(Cc4c[nH]c5ccccc45)NC(=O)C23C(=O)C=CC(=O)C1O (centres undefined)		> 46.6	8.67	27.5	8.44	28.5	29.8	32	68.2	0.935

SMILES	TGI (SR leukemia) [µM]	TGI (SNB-19 CNS) [µM]	TGI (HCT-15 colon) [µM]	TGI (OVCAR-5 ovarian) [µM]	TGI (SNB-75 CNS) [µM]	TGI (NCI-H23 lung) [µM]	TGI (SF-539 CNS) [µM]	TGI (NCI-H226 lung) [µM]	TGI (NCI/ADR-RES ovarian) [µM]	TGI (A498 renal) [µM]
Cc1cc(N)c(C)c2c1[nH]c1ccc(O)cc12	> 100	> 100	> 100	> 100		> 100	> 100	> 100		
CC(C)CC1C(=O)NCCC(NC(=O)C(Cc2ccc(OC(C)(C)C)cc2)NC(=O)OC(C)(C)C)C(=O)NC(Cc2ccccc2)C(=O)NC(Cc2ccccc2)NC1=O (centres undefined)	72.1	42.4	> 100	21.2		33.7	44.9	21.2	> 100	
O=C(O)CC1NC(/C(=C/c2ccccc2)NC(=O)c2ccccc2)OC1=O (centres undefined)		67.6	> 100	> 100	74	> 100	44.2	98.6	56.4	> 100
CC(C)(C)[Si](C)(C)OCC1OC(n2ccc(N)nc2=O)C(O[Si](C)(C)C(C)(C)C)C1O[Si](C)(C)C(C)(C)C (centres undefined)	6.66	11.4	5.25	3.58	14.2			2.86	> 100	
COc1ccc(N2C(=O)CC(C3CC(C(C)(C)C)CCC3=O)C2=O)cc1 (centres undefined)	> 100	> 100	> 100		> 100	> 100	> 100	> 100	> 100	
CCc1cc2c(oc3cc4ccccc4cc32)c(=O)[nH]1	> 10	> 10	> 10	> 10	> 10		> 10	> 10	> 10	
Cc1cc(C)n(C(=C(C(Cl)=C(Cl)Cl)[N+](=O)[O-])n2nc(C)cc2C)n1		16.2	11.4	22.8	18.1	12.8	16.4	26	20.5	8.59
COc1cc(C(=O)n2c3ccc(Br)cc3c3nc4ccccc4nc32)cc(OC)c1OC	> 100	> 100	> 100	> 100	> 100	> 100	> 100	> 100	> 100	
COc1ccc(C2COc3cc(OC(C)=O)c(OC(C)=O)cc3C2)cc1 (centres undefined)		33.4	52.9	51.7	25.8	63.1	37.8	52.9	101	8.32
OC1(C(F)(F)F)OCCN=C1C(F)(F)F (centres undefined)		> 100	> 100	> 100	> 100	> 100		> 100	> 100	> 100
CCOC(=O)C1(C#N)C(c2ccccc2)CC(O)(c2ccc(OC)cc2)C(C(=O)c2ccc(OC)cc2)C1c1ccccc1 (centres undefined)	> 100	> 100	> 100	> 100	95.3	> 100		> 100		
N=C1/C(=C/c2ccc(F)cc2)C(=O)N=C2SC=NN12	> 100	> 100	> 100	> 100	> 100	> 100	> 100	> 100	> 100	
O=c1cc(N2CCOCC2)[nH]c(=O)n1-c1ccc(F)cc1		> 100	> 100	> 100	> 100	> 100	> 100	> 100	> 100	> 100
CC(C)(Br)C(Br)CCC1(C2CO2)CO1 (centres undefined)		> 5	> 5		> 5	> 5	> 5	> 5	> 5	> 5
c1nc(OCC2CCCCC2)c2[nH]cnc2n1		> 100	> 100	> 100	> 100	> 100	> 100	> 100	> 100	
CC(=O)Nc1ccc(C(=O)NN2C(=O)CSC2c2ccc([N+](=O)[O-])cc2)cc1 (centres undefined)		> 100	> 100	> 100	> 100	> 100	> 100	> 100	> 100	> 100
OCC1OC(c2cccc3cc(O)c(O)cc23)CC1O (centres undefined)		> 100	> 100	> 100	> 100		> 100	> 100	> 100	> 100

Source: PubChem BioAssay (NCI)
